Source: US20110044952A1, “AMPLIFICATION OF CANCER-SPECIFIC ONCOLYTIC VIRAL INFECTION BY HISTONE DEACETYLASE INHIBITORS” (Ottawa Health Research Institute, priority 2007, published 2011)

Test system: VSV-d51-GFP
Type: cell-based

Row | Structure (SMILES) | amount of GFP-positive cells as an indication of VSV replication
1 | Nc1ccccc1NC(=O)c1ccc(CNC(=O)OCc2cccnc2)cc1 [MS-275] | increased the amount of GFP-positive cells
2 | O=C(/C=C/c1cccc(S(=O)(=O)Nc2ccccc2)c1)NO [PXD101] | increased the amount of GFP-positive cells
3 | O=C(CCCCCCC(=O)Nc1ccccc1)NO [SAHA, suberoylanilide hydroxamic acid] | increased the amount of GFP-positive cells
4 | CCCC(CCC)C(=O)O [VPA] | little to no effect
